Source: US4530836A, “Peptide” (Amano Pharmaceutical Co., Ltd., priority 1983, dated 1985)
Like-named read-outs stand apart in the source and are kept apart here. Starred links: 1 amine or outer side, 2 acyl side, 3 side chain; linkers in the order of their positions; H or OH if unused. Non-standard residues stand in square brackets, D forms with d. Residues, ends and D or L forms follow the SMILES beside them. sY = N[C@@H](Cc1ccc(OS(=O)(=O)O)cc1)C(=O)O; Glutaryl = O=C(CCCC(=O)[*:2])[*:1]; pGlu = O=C1CC[C@@H](C(=O)O)N1; Suc = O=C(CCC(=O)[*:2])[*:1]

How the values were obtained:
gallbladder = assay type: in vivo, guinea pig; settings: for Gallbladder contracting activity (in words): compared with CCK-8
Experimental: This test was in accordance with the method of G. Bertaccini et al. [Br. J. Pharmacol., 34, 291-310 (1968)].
Male Hartley guinea pigs (weighing 400-600 g) was anesthetized with urethane and fixed at the supine position. After laparotomy, the top of the gallbladder was clamped with a Serre-fine which was connected to a FD pickup (model: SB-IT, NIHON KOHDEN KOGYO Co., Ltd.), and the contraction was recorded on a recorder (model: PJB-3012, made by the above company) through a preamplifier (model: RUP-25, made by the above company). A standard solution and the invented peptide solutions were injected into the jugular vein, and the relative potency was determined from the peak height of the gallbladder contraction.

[1] = system: pancreatic external secretion; experiment: Acceleration of pancreatic external secretion (method of Dockray), i.v. in rats, compared with CCK-8; assay type: in vivo, rat; settings: male Wistar rats, 30 minutes after administration
Experimental: This test was conducted in accordance with the method of Dockray [J. Physiol., 225, 679-692 (1972)]. Male Wistar rats (weighing about 280 g) were deprived for 24 hours and under anesthesia the gastric pylorus and the duodenal side end of the common hepatic duct were ligated. A canula for collection of pancreatic juice was inserted into the duct in the retrograde fashion. The bile was led into the duodenum. Varying concentrations of the control solution (CCK-8 solution) and solutions of the invented peptides in a volume of 50 μl were administered intravenously every one hour, thus determining the increment in the secretion rate of the pancreatic juice and protein during 30 minutes after administration, wherein the amount of the whole protein secreted was determined from the ultraviolet absorbance at 280 nm of the pancreatic juice secreted.

[2] = system: pancreatic external secretion; experiment: Pancreatic external secretion accelerating activity (protein secretion), compared with tetragastrin; assay type: in vivo, rat; settings: rats, i.v., increment in protein secretion rate during 30 minutes (UV 280 nm); tetragastrin = 1.0
Experimental: This test was conducted in accordance with the method of Dockray [J. Physiol., 225, 679-692 (1972)]. Male Wistar rats (weighing about 280 g) were deprived for 24 hours and under anesthesia the gastric pylorus and the duodenal side end of the common hepatic duct were ligated. A canula for collection of pancreatic juice was inserted into the duct in the retrograde fashion. The bile was led into the duodenum. […] The test was conducted in the same manner as stated already. The increment in the secretion rate of the protein in the pancreatic during 30 minutes after administration of the test solution was determined from the ultraviolet absorbance at 280 nm of the pancreatic juice. The found values were compared with that of tetragastrin.

gastric acid secretion = experiment: Gastric acid secretion accelerating activity in Shay rats; assay type: in vivo, rat; settings: pylorus-ligated male Wistar rats, i.v., gastric juice 2 hours after administration; tetragastrin = 1.0
Experimental: This test was conducted with Shay rats [H, Shay et al., Gastroenterology, 5, 43 (1945)] prepared. Employing male Wistar rats (weighing 270-310 g) deprived for 24 hours, the gastric pylorus was ligated under ether-anesthesia. Immediately thereafter, the invented peptides and tetragastrin as a control were administered intravenously. Gastric juice was withdrawn 2 hours after administration, and its amount and the total amount of acid secreted were measured to determine the relative potency based on tetragastrin.

[3] = male Hartley guinea pigs, injection into jugular vein, from peak height of gallbladder contraction, CCK-8 = 100

| Compound | Gallbladder contracting activity, relative potency (gallbladder; guinea pig, in vivo) | Increased amount of the pancreatic juice secreted (in words) [1] | Gallbladder contracting activity (in words) (gallbladder; guinea pig) | Pancreatic external secretion accelerating activity, relative potency [2] | Gastric acid secretion accelerating activity, relative potency (gastric acid secretion) | Gallbladder contracting activity, relative potency (gallbladder; [3]) |
| --- | --- | --- | --- | --- | --- | --- |
| CSCC[C@H](NC(=O)[C@H](Cc1ccc(OS(=O)(=O)O)cc1)NC(=O)[C@@H](N)CC(=O)O)C(=O)NCC(=O)N[C@@H](Cc1c[nH]c2ccccc12)C(=O)N[C@@H](CCSC)C(=O)N[C@@H](CC(=O)O)C(=O)N[C@@H](Cc1ccccc1)C(N)=O [CCK-8, Asp-Tyr(SO3 H)-Met-Gly-Trp-Met-Asp-Phe-NH2, reference compound] | 100 |  |  |  |  |  |
| CSCC[C@H](NC(=O)[C@H](Cc1c[nH]c2ccccc12)NC(=O)CNC(=O)[C@H](CCSC)NC(=O)[C@H](Cc1ccc(OS(=O)(=O)O)cc1)NC(=O)CCC(=O)O)C(N)=O [Compound I, Suc-Tyr(SO3 H)-Met-Gly-Trp-Met-NH2] (Suc-[sY]MGWM-NH2) | 0 | no active effect | no activity |  |  |  |
| CSCC[C@H](NC(=O)[C@H](Cc1ccc(OS(=O)(=O)O)cc1)NC(=O)CCC(=O)O)C(=O)NCC(=O)N[C@@H](Cc1c[nH]c2ccccc12)C(=O)N[C@@H](CCSC)C(=O)N[C@@H](CC(=O)O)C(N)=O [Compound II, Suc-Tyr(SO3 H)-Met-Gly-Trp-Met-Asp-NH2] (Suc-[sY]MGWMD-NH2) | 0 | no active effect | no activity |  |  |  |
| CSCC[C@H](NC(=O)[C@H](Cc1c[nH]c2ccccc12)NC(=O)[C@@H](Cc1c[nH]c2ccccc12)NC(=O)[C@H](CCSC)NC(=O)[C@H](Cc1ccc(OS(=O)(=O)O)cc1)NC(=O)CCC(=O)O)C(=O)N[C@@H](CC(=O)O)C(=O)N[C@@H](Cc1ccccc1)C(N)=O [Compound IV, Suc-Tyr(SO3 H)-Met-D-Trp-Trp-Met-Asp-Phe-NH2] (Suc-[sY]M[dW]WMDF-NH2) | 5.0 | comparable to that of CCK-8 | mild |  |  |  |
| CSCC[C@H](NC(=O)[C@H](Cc1ccc(OS(=O)(=O)O)cc1)NC(=O)[C@H](CC(=O)O)NC(=O)CCN)C(=O)NCC(=O)N[C@@H](Cc1c[nH]c2ccccc12)C(=O)N[C@@H](CCSC)C(=O)N[C@@H](CC(=O)O)C(=O)N[C@@H](Cc1ccccc1)C(N)=O [Compound IX, β-Ala-Asp-Tyr(SO3 H)-Met-Gly-Trp-Met-Asp-Phe-NH2] | 113 | about half of that of CCK-8 | comparable activities with CCK-8 |  |  |  |
| CSCC[C@H](NC(=O)[C@H](Cc1c[nH]c2ccccc12)NC(=O)[C@@H](Cc1c[nH]c2ccccc12)NC(=O)[C@H](CCSC)NC(=O)[C@H](Cc1ccc(OS(=O)(=O)O)cc1)NC(=O)CCCC(=O)O)C(=O)N[C@@H](CC(=O)O)C(=O)N[C@@H](Cc1ccccc1)C(N)=O [Compound V, Glt-Tyr(SO3 H)-Met-D-Trp-Trp-Met-Asp-Phe-NH2] (Glutaryl-[sY]M[dW]WMDF-NH2) | < 1.0 | comparable to that of CCK-8 | little activity |  |  |  |
| CSCC[C@H](NC(=O)[C@H](Cc1ccc(OS(=O)(=O)O)cc1)NC(=O)[C@H](CC(=O)O)NC(=O)CN)C(=O)NCC(=O)N[C@@H](Cc1c[nH]c2ccccc12)C(=O)N[C@@H](CCSC)C(=O)N[C@@H](CC(=O)O)C(=O)N[C@@H](Cc1ccccc1)C(N)=O [Compound VIII, Gly-Asp-Tyr(SO3 H)-Met-Gly-Trp-Met-Asp-Phe-NH2] | 97 | comparable to that of CCK-8 | comparable activities with CCK-8 |  |  |  |
| CSCC[C@H](NC(=O)[C@H](Cc1c[nH]c2ccccc12)NC(=O)CNC(=O)[C@H](Cc1ccc(OS(=O)(=O)O)cc1)NC(=O)[C@H](C)NC(=O)CCCC(=O)O)C(=O)N[C@@H](CC(=O)O)C(=O)N[C@@H](Cc1ccccc1)C(N)=O [Compound X, Glt-Ala-Tyr(SO3 H)-Gly-Trp-Met-Asp-Phe-NH2] (Glutaryl-A[sY]GWMDF-NH2) |  |  |  | 258.8 | 6.1 |  |
| CSCC[C@H](NC(=O)[C@H](Cc1c[nH]c2ccccc12)NC(=O)CNC(=O)[C@H](Cc1ccc(OS(=O)(=O)O)cc1)NC(=O)[C@H](C)NC(=O)[C@@H]1CCC(=O)N1)C(=O)N[C@@H](CC(=O)O)C(=O)N[C@@H](Cc1ccccc1)C(N)=O [Compound XI, pGlu-Ala-Tyr(SO3 H)-Gly-Trp-Met-Asp-Phe-NH2] ([pGlu]A[sY]GWMDF-NH2) |  |  |  | 50.0 | 2.0 |  |
| CSCC[C@H](NC(=O)[C@@H](N)Cc1c[nH]c2ccccc12)C(=O)N[C@@H](CC(=O)O)C(=O)N[C@@H](Cc1ccccc1)C(N)=O [Tetragastrin, reference compound] |  |  |  | 1.0 | 1.0 |  |
| Suc-Phe(NHSO3 H)-Met-Gly-Trp-Met-Asp-Phe-NH2 [Compound VII] |  | no active effect | little activity |  |  | < 1.0 |
| Suc-Tyr(SO3 H)-Met-D-Ala-Trp-Met-Asp-Phe-NH2 [Compound III] |  |  | mild |  |  | 8.7 |
